Structures can show the parent of a compound that is named as a salt. Where two headings read alike, the source gives them in different places.
What was measured:
Type in all cases: cell-based, human
[1] = tested on: AsPC-1 cells (KRAS G12D mutation); assay: 3D cell proliferation assay (CellTiter Glo-3D), AsPC-1; settings: medium with 2% FBS, read-out: AsPC-1 AP IC50
Summary of the method: (§1)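 Cells seeded at 800 per well in medium with 2% FBS, treated next day with 3.16-fold dilution series (0.1% DMSO) for 5 days at 37°C. Viability by CellTiter-Glo 3D luminescence; inhibition normalised to DMSO and cell-free controls, IC50 by four-parameter fit.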

[2] = tested on: p-ERK in NCI-H441 cells (KRAS G12V mutation); assay: Cell p-ERK assay (HTRF) in NCI-H441 cells; settings: NCI-H441 cells, 3 h compound incubation, HTRF p-ERK T202/Y204, read-out: H441 p-ERK IC50
Summary of the method: (§2)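 IC50 values derive from four-parameter fitting of p-ERK (T202/Y204) HTRF inhibition, normalized to DMSO and blank controls. The lysates came from cells exposed for 3 h to serial 3.16-fold compound dilutions at 0.1% DMSO, after overnight plating at 10000 AsPC-1 or 20000 NCI-H441 cells per well.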

[3] = tested on: p-ERK in AsPC-1 cells (KRAS G12D mutation); assay: Cell p-ERK assay (HTRF) in AsPC-1 cells; settings: AsPC-1 cells, 3 h compound incubation, HTRF p-ERK T202/Y204, read-out: AsPC-1 p-ERK IC50
Summary of the method: as §2

NCI-H441 cells = assay: 3D cell proliferation assay (CellTiter Glo-3D), NCI-H441; settings: medium with 2% FBS, read-out: H441 AP IC50
Summary of the method: as §1

[4] = Homo sapiens, ASPC1, 3D cell proliferation (CellTiter Glo-3D)
[5] = Homo sapiens, NCI-H441, 3D cell proliferation (CellTiter Glo-3D)
[6] = 3D cell proliferation (CellTiter Glo-3D)

Row | Structure (SMILES) | IC50 [1, 4] [nM] | IC50 ([2]; Homo sapiens, NCI-H441, 3 h) [nM] | IC50 ([3]; Homo sapiens, ASPC1, 3 h) [nM] | IC50 (NCI-H441 cells; [5]) [nM] | IC50 [1, 6] [nM] | IC50 [2] [nM] | IC50 [3] [nM] | IC50 (NCI-H441 cells; [6]) [nM]
1 | CCn1c(-c2cc(C#CCN3CCOC4(CC4)C3)cnc2[C@H](C)OC)c2c3cc(ccc31)-c1csc(n1)C[C@H](NC(=O)[C@H]1[C@H](C)[C@@H]1C)C(=O)N1CCC[C@H](N1)C(=O)OCC(C)(C)C2 [Compound Z369-1, (1r,2R,3S)—N-((6^3S,4S,Z)-1^2-(5-(3-(4-oxa-7-azaspiro[2.5]octan-7-yl)prop-1-yn-1-yl)-2-((S)-1-methoxyethyl)pyridin-3-yl)-1^1-ethyl-10,10-dimethyl-5,7-dioxo-6^1,6^2,6^3,6^4,6^5,6^6-hexahydro-1^1H-8-oxa-2(4,2)-thiazola-1(5,3)-indola-6(1,3)-pyridazinacycloundecaphane-4-yl)-2,3-dimethylcyclopropane-1-carboxamide formate] | 0.14 | 0.16 | 0.12 | 0.21 | – | – | – | –
2 | CCn1c(-c2cc(C3(N(C)C(=O)CN(C)C)CC3)cnc2[C@H](C)OC)c2c3cc(ccc31)-c1csc(n1)C[C@H](NC(=O)[C@H]1[C@H](C)[C@@H]1C)C(=O)N1CCC[C@H](N1)C(=O)OCC(C)(C)C2 [Compound Z372, (1r,2R,3S)—N-((6^3S,4S,Z)-1^2-(5-(1-(2-(dimethylamino)-N-methylacetamido)cyclopropyl)-2-((S)-1-methoxyethyl)pyridin-3-yl)-1^1-ethyl-10,10-dimethyl-5,7-dioxo-6^1,6^2,6^3,6^4,6^5,6^6-hexahydro-1^1H-8-oxa-2(4,2)-thiazola-1(5,3)-indola-6(1,3)-pyridazinacycloundecaphane-4-yl)-2,3-dimethylcyclopropane-1-carboxamide] | 15.3 | 14 | 31.4 | 6.8 | – | – | – | –
3 | CCn1c(-c2cc(C#CCN3CC(F)(F)C3)cnc2[C@H](C)OC)c2c3cc(ccc31)-c1csc(n1)C[C@H](NC(=O)[C@H]1[C@H](C)[C@@H]1C)C(=O)N1CCC[C@H](N1)C(=O)OCC(C)(C)C2 [Compound Z390-1, (2R,3S)—N-((6^3S,4S,Z)-1^2-(5-(3-(3,3-difluoroazetidin-1-yl)prop-1-yn-1-yl)-2-((S)-1-methoxyethyl)pyridin-3-yl)-1^1-ethyl-10,10-dimethyl-5,7-dioxo-6^1,6^2,6^3,6^4,6^5,6^6-hexahydro-1^1H-8-oxa-2(4,2)-thiazola-1(5,3)-indola-6(1,3)-pyridazinacycloundecaphane-4-yl)-2,3-dimethylcyclopropane-1-carboxamide] | 0.54 | 0.4 | 0.34 | 0.48 | – | – | – | –
4 | CCn1c(-c2cc(OCCN3CCC4(CC4)C3)cnc2[C@H](C)OC)c2c3cc(ccc31)-c1csc(n1)C[C@H](NC(=O)[C@H]1[C@H](C)[C@@H]1C)C(=O)N1CCC[C@H](N1)C(=O)OCC1(CC1)C2 [Compound Z415, (1r,2R,3S)—N-((3′S,4′S,Z)-2′-(5-(2-(5-azaspiro[2.4]heptan-5-yl)ethoxy)-2-((S)-1-methoxyethyl)pyridin-3-yl)-1′-ethyl-5′,7′-dioxaspiro[cyclopropane-1,10′-8-oxa-2(4,2)-thiazola-1(5,3)-indola-6(1,3)-pyridazinacycloundecaphan]-4′-yl)-2,3-dimethylcyclopropane-1-carboxamide] | 12.6 | 11.7 | 10.1 | 7.54 | – | – | – | –

Now from value to compound:

Row | IC50 [1, 4] [nM] | IC50 ([2]; Homo sapiens, NCI-H441, 3 h) [nM] | IC50 ([3]; Homo sapiens, ASPC1, 3 h) [nM] | IC50 (NCI-H441 cells; [5]) [nM] | IC50 [1, 6] [nM] | IC50 [2] [nM] | IC50 [3] [nM] | IC50 (NCI-H441 cells; [6]) [nM] | Structure (SMILES)
5 | – | – | – | – | 0.45 | 0.33 | 0.21 | 0.34 | CCn1c(-c2cc(OCC3(N4CCS(=O)(=O)CC4)CC3)cnc2[C@H](C)OC)c2c3cc(ccc31)-c1csc(n1)C[C@H](NC(=O)[C@H]1[C@H](C)[C@@H]1C)C(=O)N1CCC[C@H](N1)C(=O)OCC(C)(C)C2 [Compound Z449, (1r,2R,3S)—N-((6^3S,4S,Z)-1^2-(5-((1-(1,1-dioxidothiomorpholino)cyclopropyl)methoxy)-2-((S)-1-methoxyethyl)pyridin-3-yl)-1^1-ethyl-10,10-dimethyl-5,7-dioxo-6^1,6^2,6^3,6^4,6^5,6^6-hexahydro-1^1-hydrogen-8-oxa-2(4,2)-thiazola-1(5,3)-indola-6(1,3)-pyridazinacycloundecaphane-4-yl)-2,3-dimethylcyclopropane-1-carboxamide]
6 | – | – | – | – | 2.4 | 1.14 | 1.45 | 1 | CCn1c(-c2cc(CCN3CCS(=O)(=O)CC3)cnc2[C@H](C)OC)c2c3cc(ccc31)-c1csc(n1)C[C@H](NC(=O)[C@H]1[C@H](C)[C@@H]1C)C(=O)N1CCC[C@H](N1)C(=O)OCC(C)(C)C2 [Compound Z485A, (1r,2R,3S)—N-((6^3S,4S,Z)-1^2-(5-(2-(1,1-dioxidothiomorpholino)ethyl)-2-((S)-1-methoxyethyl)pyridin-3-yl)-1-ethyl-10,10-dimethyl-5,7-dioxo-6^1,6^2,6^3,6^4,6^5,6^6-hexahydro-1^1H-8-oxa-2(4,2)-thiazola-1(5,3)-indola-6(1,3)-pyridazinacycloundecaphane-4-yl)-2,3-dimethylcyclopropane-1-carboxamide]
7 | 47.5 | 14.6 | 45 | 17.5 | – | – | – | – | CCn1c(-c2cc(N3CCN(C)CC3)cnc2[C@H](C)OC)c2c3cc(ccc31)-c1csc(n1)C[C@H](Nc1cc(C)cnn1)C(=O)N1CCC[C@H](N1)C(=O)OCC(C)(C)C2 [Compound Z559, (6^3S,4S,Z)-1^1-ethyl-(R3)-1^2-(2-((S)-1-methoxyethyl)-5-(4-methylpiperazin-1-yl)pyridin-3-yl)-10,10-dimethyl-4-((5-methylpyridazin-3-yl)amino)-6^1,6^2,6^3,6^4,6^5,6^6-hexahydro-1^1H-8-oxa-2(4,2)-thiazola-1(5,3)-indola-6(1,3)-pyridazinacycloundecaphane-5,7-dione]
8 | – | – | – | – | 1.12 | 0.45 | 0.54 | 0.36 | CCn1c(-c2cc(OCCN3CCS(=O)(=O)CC3)cnc2[C@H](C)OC)c2c3cc(ccc31)-c1csc(n1)C[C@H](NC(=O)C(C)C(C)C)C(=O)N1CCC[C@H](N1)C(=O)OCC(C)(C)C2 (stereo partly drawn) [Compound Z607, N-((6^3S,4S,Z)—(R4)-1^2(5-(2-(1,1-dioxidothiomorpholino)ethoxy)-2-((S)-1-methoxyethyl)pyridin-3-yl)-1^1-ethyl-10,10-dimethyl-5,7-dioxo-6^1,6^2,6^3,6^4,6^5,6^6-hexahydro-1^1H-8-oxa-2(4,2)-thiazola-1(5,3)-indola-6(1,3)-pyridazinacycloundecaphane-4-yl)-2,3-dimethylbutanamide]
9 | – | – | – | – | 2.97 | 1.6 | 2.6 | 1.31 | CCn1c(-c2cc(OCC(C)(C)N3CCS(=O)(=O)CC3)cnc2[C@H](C)OC)c2c3cc(ccc31)-c1csc(n1)C[C@H](NC(=O)[C@H]1[C@H](C)[C@@H]1C)C(=O)N1CCC[C@H](N1)C(=O)OCC(C)(C)C2 [Compound Z667A]
10 | 0.13 | 0.13 | 0.11 | 0.29 | – | – | – | – | CCn1c(-c2cc(C#CCN3CCN(C)S(=O)(=O)CC3)cnc2[C@H](C)OC)c2c3cc(ccc31)-c1csc(n1)C[C@H](NC(=O)[C@H]1[C@H](C)[C@@H]1C)C(=O)N1CCC[C@H](N1)C(=O)OCC(C)(C)C2 [Compound Z847, (1r,2R,3S)—N-((6^3S,4S,Z)—1′-ethyl-(2-((S)-1-methoxyethyl)-5-(3-(2-methyl-1,1-dioxido-1,2,5-thiadiazepan-5-yl)prop-1-yn-1-yl)pyridin-3-yl)-10,10-dimethyl-5,7-dioxo-6^1,6^2,6^3,6^4,6^5,6^6-hexahydro-1^1H-8-oxa-2(4,2)-thiazola-1(5,3)-indola-6(1,3)-pyridazinacycloundecaphane-4-yl)-2,3-dimethylcyclopropane-1-carboxamide]

— patent US20260234165A1, “MACROCYCLIC COMPOUNDS, PREPARATION METHOD THEREFOR, AND USE THEREOF” (GENFLEET THERAPEUTICS (SHANGHAI) INC., priority 2004, published 2026)
